From paper PMC5939596 (Cell chemical biology, 2016)
Non-standard residues stand in square brackets, D forms with d. *: point of attachment. ACC = NC(=O)Cc1cc(=O)oc2cc(N*)ccc12; Tic = O=C(O)[C@@H]1Cc2ccccc2CN1; AMC = Cc1cc(=O)oc2cc(N*)ccc12; Cbz = O=C(OCc1ccccc1)*

Columns and labels:
[1] = molecular target: T1, legumain (Homo sapiens, UniProt Q99538); assay: pH dependence of legumain activity towards P1-Asn and P1-Asp substrates; type: biochemical
T1 sequence (Q99538 18-323 limits assumed): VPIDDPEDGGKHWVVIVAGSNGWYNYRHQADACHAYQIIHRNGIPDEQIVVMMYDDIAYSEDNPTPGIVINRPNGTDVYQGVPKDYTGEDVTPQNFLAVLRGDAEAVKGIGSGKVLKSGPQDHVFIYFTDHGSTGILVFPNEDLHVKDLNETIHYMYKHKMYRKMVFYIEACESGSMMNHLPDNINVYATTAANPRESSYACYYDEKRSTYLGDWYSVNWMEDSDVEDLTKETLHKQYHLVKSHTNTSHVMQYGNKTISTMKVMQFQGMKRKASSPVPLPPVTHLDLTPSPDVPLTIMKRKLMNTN

[2] = molecular target: T1, legumain; assay: Kinetics of ACC substrate hydrolysis by legumain; type: biochemical; settings: for kcat/Km: hydrolysis by legumain
[3] = molecular target: T2, autoactivated recombinant human legumain (Homo sapiens, UniProt Q99538); assay: Km of legumain cleavage of Z-Ala-Ala-Asn-AMC; type: biochemical; settings: 2.5 nM autoactivated rhLeg, substrate 1.565–200 nM, legumain assay buffer pH 5.8, 30°C
T2 sequence (Q99538 18-323 limits assumed): T1 sequence (Q99538 18-323 limits assumed)

[4] = molecular target: T1, legumain; assay: Direct probe binding and inhibition of legumain in M38L cell lysate; type: biochemical; settings: M38L lysate 3.5 μg total protein, probe 0–10 μM, pH 5.8, 30 min at 30°C
[5] = molecular target: T1, legumain; assay: Probe labelling in lysates of caspase-8/caspase-3 cotransfected M38L cells; type: cell-based; settings: for probe labelling of legumain: probe 1 μM, 30 min at 30°C, pH 5.8 or 7.4, immunoblotting
[6] = molecular target: T3, caspase-3 (Homo sapiens, UniProt P42574); assay: as above; type: cell-based; settings: probe 1 μM, 30 min at 30°C, pH 5.8 or 7.4, immunoblotting
T3 sequence (P42574 29-175 limits assumed): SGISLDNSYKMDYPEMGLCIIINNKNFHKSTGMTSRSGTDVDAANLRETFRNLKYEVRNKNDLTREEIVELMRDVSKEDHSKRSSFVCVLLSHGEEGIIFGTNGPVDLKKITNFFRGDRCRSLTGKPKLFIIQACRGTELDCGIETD
T3 sequence (P42574 176-277 limits assumed): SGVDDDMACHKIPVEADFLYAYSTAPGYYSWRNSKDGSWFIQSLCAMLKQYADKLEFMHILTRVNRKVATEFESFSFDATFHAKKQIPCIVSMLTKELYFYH

[7] = molecular target: T4, prolegumain (56 kDa) (Homo sapiens, UniProt Q99538); assay: Probe binding to prolegumain; settings: immunoblotting
T4 sequence (Q99538 18-433): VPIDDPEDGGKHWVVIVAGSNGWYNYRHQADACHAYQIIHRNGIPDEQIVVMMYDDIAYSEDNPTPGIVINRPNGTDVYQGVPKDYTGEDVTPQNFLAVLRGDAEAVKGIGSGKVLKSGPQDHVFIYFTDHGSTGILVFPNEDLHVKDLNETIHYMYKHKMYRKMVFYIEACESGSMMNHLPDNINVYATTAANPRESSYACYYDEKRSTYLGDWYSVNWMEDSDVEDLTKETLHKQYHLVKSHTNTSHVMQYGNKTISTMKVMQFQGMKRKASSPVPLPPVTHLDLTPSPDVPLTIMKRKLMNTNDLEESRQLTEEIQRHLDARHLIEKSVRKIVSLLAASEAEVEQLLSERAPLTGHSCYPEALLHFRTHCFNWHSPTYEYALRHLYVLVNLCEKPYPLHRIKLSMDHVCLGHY

[8] = molecular target: T5, recombinant auto-activated legumain (46 kDa) (Homo sapiens, UniProt Q99538); assay: Probe binding to recombinant enzyme; settings: probe 10 nM, enzyme 50 nM, pH 5.8 and pH 7.2
T5 sequence (Q99538 18-323 limits assumed): T1 sequence (Q99538 18-323 limits assumed)

[9] = molecular target: T2, autoactivated recombinant human legumain; assay: Inhibition rate constants
[10] = molecular target: T3, caspase-3; assay: Probe binding in cytochrome c/dATP-activated FreeStyle 293-F cytosolic extract; settings: probe 0–1 μM, pH 5.8 and 7.2, 5 or 30 min at 30°C, immunoblotting
[11] = system: legumain over-expressing M38L cells; settings: time-course 0–24 h, immunoblotting

Ac-D-Tyr-Tic-Thr-Asn-ACC
optimal pH for legumain activity [1]: 5.8

Ac-[dY][Tic]TD-{ACC}
optimal pH for legumain activity [1]: 4.5

Cbz-Ala-Ala-Asn-{ACC}
kcat/Km [2]: 36100 s^−1M^−1 | times faster cleaved than its P1-Asp analog ([2]; ratio of kcat/Km, Z-AAN-ACC versus Z-AAD-ACC): ~ 22

Cbz-Ala-Ala-Asn-{AMC}
Km [3]: 25.7 µM

Cbz-Ala-Ala-Asp-{ACC}
kcat/Km [2]: 1600 M⁻¹ s⁻¹

biotin-6-ahx-D-Tyr-Tic-Ser-Asp-AOMK [MP-L01] [listing 1 of 2 here]
potency relative to either methylated probes (MP-L02 or -L03) [4]: approximately 100 fold | pH dependence of legumain binding ([5]; lysates of M38L cells, pH 5.8 versus 7.4): only detected at pH 5.8 and not at 7.4 | probe labelling of legumain [5]: only binds legumain | probe labelling of caspase-3 [6]: could not detect such activity | binding to cellular, secreted or recombinant prolegumain (56 kDa) [7]: did not bind | binding to recombinant auto-activated legumain [8]: bound by MP-L01 at pH 5.8 and not at pH 7.2 | inhibition rate constant (kobs/I) relative to the two methylated probes (MP-L02 and -L03) ([9]; 2.5 nM enzyme, Z-Ala-Ala-Asn-AMC substrate, pH 5.8, 30°C): approximately 100 fold | binding to active caspase-3 [10]: only weakly bound

biotin-6-ahx-D-Tyr-Tic-Ser-Asp-AOMK [MP-L01] [listing 2 of 2 here]
incubation time for maximal detection of probe in cells [11]: 8 to 24 h

biotin-6-ahx-DEVD-AOMK [reference compound]
probe labelling of legumain [5]: labels both legumain and caspase-3 | probe labelling of caspase-3 [6]: labels both legumain and caspase-3 | inhibition of recombinant legumain (kobs/I), lower efficiency than MP-L01 [9]: 20 fold | binding to active caspase-3 [10]: strongly bound
